This is an account of results in US11772041B2, “Composite amine absorbent, and device and method for removing CO2 or H2S, or both of CO2 and H2S” (MITSUBISHI HEAVY INDUSTRIES, LTD., priority 2019, dated 2023).

Data set [1] can be described thus: Solubility in water of ether bond-containing compounds. It is filed as physicochemical. An excerpt: The solubilities in water of the first ether bond-containing compound (propylene glycol monopropyl ether) in Test Example 1, the first ether bond-containing compound (dipropylene glycol monopropyl ether) in Test Example 7, and the ether bond-containing compound of the chemical formula I wherein R^2 has 4 (C4) or more carbon atoms (butylene glycol monobutyl ether) were compared.
The solubilities in water of the first ether bond-containing compound (propylene glycol monopropyl ether) in Test Example 1, the ether bond-containing compound (dipropylene glycol monopropyl ether) in Test Example 7, and the ether bond-containing compound of the chemical formula I wherein R^3 is an alkyl group (propylene glycol dibutyl ether) were compared.

Data set [2] can be described thus: Boiling point of ether bond-containing compounds. The following applies: Table 5, Test Example 23; under atmospheric pressure.

In the case of `CCCCOCCCCO` [Butylene glycol monobutyl ether, butylene glycol monobutyl ether], the “Solubility in water (% by weight)” value in data set [1] (Table 3, Test Example 21) was “About 1 % by weight”. In the case of `COCCOC(C)=O` [Ethylene glycol monomethyl ether acetate, ethylene glycol monomethyl ether acetate], the “Boiling point (° c.)” value in data set [2] stood at 143 ° c. As to `CCCCOCC(C)OCCCC` (stereo not drawn) [Propylene glycol dibutyl ether, propylene glycol dibutyl ether], the “Solubility in water (% by weight)” value in data set [1] (Table 4, Test Example 22) is recorded as “Less than 1 % by weight”.
